Patent publication US11319286B2, “Heterocyclic compound and application thereof” (Takeda Pharmaceutical Company Limited, priority 2017, dated 2022)

Target: T1, human orexin type 2 receptor (hOX2R) (Homo sapiens, UniProt O43614)
T1 construct: expressed in transfected cells
T1 sequence (O43614 1-444): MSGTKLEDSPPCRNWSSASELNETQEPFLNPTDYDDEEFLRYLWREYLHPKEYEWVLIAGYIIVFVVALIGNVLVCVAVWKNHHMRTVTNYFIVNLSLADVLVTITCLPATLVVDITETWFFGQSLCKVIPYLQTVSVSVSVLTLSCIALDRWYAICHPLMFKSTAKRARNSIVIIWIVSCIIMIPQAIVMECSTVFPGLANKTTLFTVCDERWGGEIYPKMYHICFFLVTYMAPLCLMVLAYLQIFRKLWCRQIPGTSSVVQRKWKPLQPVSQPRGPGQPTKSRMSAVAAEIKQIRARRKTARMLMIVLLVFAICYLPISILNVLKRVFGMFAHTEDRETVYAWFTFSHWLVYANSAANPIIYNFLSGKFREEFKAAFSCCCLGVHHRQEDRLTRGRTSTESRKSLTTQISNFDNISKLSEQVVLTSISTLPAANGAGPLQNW
Assay: Measurement of orexin type 2 receptor agonist activity (calcium fluorescence, Fluo-4 AM, FDSS)
Format: cell-based
Conditions: CHO cells forcibly expressing human OX2 receptor; 100% = orexin A (human) 10 nM, 0% = DMSO
Excerpt: To obtain a cell clone stably expressing human orexin type 2 receptor, human orexin type 2 receptor cDNA was inserted into pcDNA3.1(+) plasmid vector (Invitrogen), and a plasmid DNA for expression of human orexin type 2 receptor (pcDNA3.1(+)/hOX2R) was cloned. The plasmid DNA was introduced into CHO-dhfr cell by an electroporation method, and human orexin type 2 receptor expressing clone cells were obtained by limiting dilution method by using G418 drug resistance as a selection marker.
CHO cells forcibly expressing human OX2 receptor were seeded in each well of 384 well black transparent bottom plate (BD Falcon) at 7,500 cells/well, and cultured for one day in a 5% CO2 incubator at 37° C. After removal of the medium in the cell plate, assay buffer A containing a calcium indicator (HBSS (Thermo Fisher Scientific), 20 mM HEPES (Thermo Fisher Scientific), 0.1% BSA (Wako Pure Chemical Industries, Ltd. or Sigma-Aldrich), 2.5 μg/mL Fluo-4 AM (DOJINDO Chemical), 0.08% Pluronic F127 (DOJINDO Chemical), 1.25 mM probenecid (DOJINDO Chemical)) was added at 30 μL/well. The plate was stood for 30 min in a 5% CO2 incubator at 37° C., and further stood at room temperature for 30 min. A test compound prepared by diluting with assay buffer B (HBSS, 20 mM HEPES, 0.1% BSA) was added at 10 μL/well, and the fluorescence value was measured by FDSSμCELL (Hamamatsu Photonics K.K.) every one sec for 1 min, and thereafter every two sec for 1 min 40 sec. The activity (%) of the test compound was calculated assuming that variation in the fluorescence value when DMSO was added instead of the test compound was 0%, and variation in the fluorescence value when orexin A (human) (PEPTIDE INSTITUTE, INC.) was added at the final concentration of 10 nM was 100%. Unless otherwise specified, the maximum agonist activity of each compound was 90% or more, when the maximum agonist activity of orexin A was considered as 100%.

Compound | EC50
COC(=O)N1CC[C@H](NS(C)(=O)=O)[C@@H]1CO[C@H]1CC[C@@H](c2ccccc2)CC1 (relative stereo) [Example 1, methyl cis-3-((methylsulfonyl)amino)-2-(((cis-4-phenylcyclohexyl)oxy)methyl)pyrrolidine-1-carboxylate] | 0.13 µM
CS(=O)(=O)N[C@H]1CCN[C@H]1CO[C@H]1CC[C@@H](c2ccccc2)CC1 (relative stereo) [Example 2, N-(cis-2-(((cis-4-phenylcyclohexyl)oxy)methyl)pyrrolidin-3-yl)methanesulfonamide] | 3.6 µM
CCOC(=O)N1CC[C@H](NS(C)(=O)=O)[C@@H]1CO[C@H]1CC[C@@H](c2ccccc2)CC1 (relative stereo) [Example 3, ethyl cis-3-((methylsulfonyl)amino)-2-(((cis-4-phenylcyclohexyl)oxy)methyl) pyrrolidine-1-carboxylate] | 0.24 µM
CS(=O)(=O)N[C@H]1CCN(C(=O)C2CC2)[C@H]1CO[C@H]1CC[C@@H](c2ccccc2)CC1 (relative stereo) [Example 4, N-(cis-1-(cyclopropylcarbonyl)-2-(((cis-4-phenylcyclohexyl)oxy)methyl)pyrrolidin-3-yl)methanesulfonamide] | 0.047 µM
CS(=O)(=O)N[C@H]1CCN(C(=O)CC(F)(F)F)[C@H]1CO[C@H]1CC[C@@H](c2ccccc2)CC1 (relative stereo) [Example 5, N-(cis-2-(((cis-4-phenylcyclohexyl)oxy)methyl)-1-(3,3,3-trifluoropropanoyl)pyrrolidin-3-yl)methanesulfonamide] | 0.76 µM
CS(=O)(=O)N[C@H]1CCN(C(=O)N2CCC2)[C@H]1CO[C@H]1CC[C@@H](c2ccccc2)CC1 (relative stereo) [Example 6, N-(cis-1-(azetidin-1-ylcarbonyl)-2-(((cis-4-phenylcyclohexyl)oxy)methyl)pyrrolidin-3-yl)methanesulfonamide] | 0.017 µM
CS(=O)(=O)N[C@H]1CCN(C(=O)C2CCC2)[C@H]1CO[C@H]1CC[C@@H](c2ccccc2)CC1 (relative stereo) [Example 7, N-(cis-1-(cyclobutylcarbonyl)-2-(((cis-4-phenylcyclohexyl)oxy)methyl)pyrrolidin-3-yl)methanesulfonamide] | 0.04 µM
CN(C)C(=O)N1CC[C@H](NS(C)(=O)=O)[C@@H]1CO[C@H]1CC[C@@H](c2ccccc2)CC1 (relative stereo) [Example 8, cis-N,N-dimethyl-3-((methylsulfonyl)amino)-2-(((cis-4-phenylcyclohexyl)oxy)methyl)pyrrolidine-1-carboxamide] | 0.013 µM
CN(C)C(=O)N1CC[C@H](NS(C)(=O)=O)[C@@H]1CO[C@H]1CC[C@@H](c2ccccc2C(F)(F)F)CC1 (relative stereo) [Example 9, cis-3-((methanesulfonyl)amino)-N,N-dimethyl-2-(((cis-4-(2-(trifluoromethyl)phenyl)cyclohexyl)oxy)methyl)pyrrolidine-1-carboxamide] | 0.27 µM
CC(C)(O)C(=O)N1CC[C@H](NS(C)(=O)=O)[C@@H]1CO[C@H]1CC[C@@H](c2ccccc2)CC1 (relative stereo) [Example 10, N-(cis-1-(2-hydroxy-2-methylpropanoyl)-2-(((cis-4-phenylcyclohexyl)oxy)methyl)pyrrolidin-3-yl)methanesulfonamide] | 0.41 µM
CN(C)C(=O)N1CC[C@H](NS(C)(=O)=O)[C@@H]1COC1CCN(c2ncc(F)cn2)CC1 (relative stereo) [Example 11, cis-2-(((1-(5-fluoropyrimidin-2-yl)piperidin-4-yl)oxy)methyl)-3-((methanesulfonyl)amino)-N,N-dimethylpyrrolidine-1-carboxamide] | 0.082 µM
